Laboratory results from patent US20090270379A1, “QUINOLONE DERIVATIVES USEFUL AS ANTIBACTERIAL AGENTS” (priority 2008, published 2009).
≈ marks a conversion by molar mass, not a printed value.

Key:
Assay type in all cases: cell-based
[1] = tested on: strain D, fluoroquinolone-resistant clinical isolate of Streptococcus pneumoniae; experiment: In vitro antibacterial activity (MIC), microdilution broth method, strain D; conditions: read-out: MIC (μg/mL) D
Description: (§1) Minimal inhibitory concentration (MIC) is an indicator of in vitro antibacterial activity. […] The in vitro antimicrobial activity of representative compounds of the present invention was determined by the microdilution broth method following the test method from the National Committee for Clinical Laboratory Standards (NCCLS). This method is described in the NCCLS Document M7-A4, Vol. 17, No. 2, “Methods for Dilution Antimicrobial Susceptibility Test for Bacteria that Grow Aerobically—Fourth Edition”, which is incorporated herein by reference.
(§2) In this method two-fold serial dilutions of drug in cation adjusted Mueller-Hinton broth were added to wells in microdilution trays. The test organisms were prepared by adjusting the turbidity of actively growing broth cultures so that the final concentration of test organism after it is added to the wells was approximately 5×10^4 CFU/well. Following inoculation of the microdilution trays, the trays were incubated at 35° C. for 16-20 hours and then read. The amount of growth in the wells containing the test compound was compared with the amount of growth in the growth-control wells (no test compound) used in each tray.
(§3) Representative compounds of the present invention were tested against a variety of pathogenic bacteria with results as listed in Table 3, below.

[2] = tested on: Streptococcus pneumoniae ATCC 49619; experiment: In vitro antibacterial activity (MIC), microdilution broth method, strain E; conditions: ATCC49619, 35° C., 16-20 hours
Description: as §1, §2, §3

[3] = tested on: strain C, fluoroquinolone-resistant clinical isolate of Streptococcus pneumoniae; experiment: In vitro antibacterial activity (MIC), microdilution broth method, strain C; conditions: read-out: MIC (μg/mL) C
Description: as §1, §2, §3

[4] = tested on: strain B, fluoroquinolone-resistant clinical isolate of Streptococcus pneumoniae; experiment: In vitro antibacterial activity (MIC), microdilution broth method, strain B; conditions: read-out: MIC (μg/mL) B
Description: as §1, §2, §3

[5] = tested on: Staphylococcus aureus OC4172; experiment: In vitro antibacterial activity (MIC), microdilution broth method, strain A; conditions: cation adjusted Mueller-Hinton broth, 35° C., 16-20 hours
Description: as §1, §2, §3

C[C@@H]1NCCn2cc(-c3cc4c(cc3F)c(=O)c(C(=O)O)cn4C3CC3)cc21 [Compound 21, 1-Cyclopropyl-6-fluoro-7-(1S-methyl-1,2,3,4-tetrahydro-pyrrolo[1,2-a]pyrazin-7-yl)-4-oxo-1,4-dihydro-quinoline-3-carboxylic acid]
MIC [1]: 16 µg/mL (≈ 41.9 µM)
MIC [2]: 1 µg/mL (≈ 2.62 µM)
MIC [3]: 16 µg/mL (≈ 41.9 µM)
MIC [4]: 4 µg/mL (≈ 10.5 µM)
MIC [5]: 0.25 µg/mL (≈ 0.655 µM)

C[C@H]1NCCn2cc(-c3cc4c(cc3F)c(=O)c(C(=O)O)cn4C3CC3)cc21 [Compound 22, 1-Cyclopropyl-6-fluoro-7-(1R-methyl-1,2,3,4-tetrahydro-pyrrolo[1,2-a]pyrazin-7-yl)-4-oxo-1,4-dihydro-quinoline-3-carboxylic acid]
MIC [1]: > 16 µg/mL
MIC [2]: 1 µg/mL (≈ 2.62 µM)
MIC [3]: 16 µg/mL (≈ 41.9 µM)
MIC [4]: 4 µg/mL (≈ 10.5 µM)
MIC [5]: 0.25 µg/mL (≈ 0.655 µM)

C[C@H]1Cn2cc(-c3c(F)cc4c(=O)c(C(=O)O)cn5c4c3OC[C@@H]5C)cc2CN1 [Compound 23, 8-Fluoro-3S-methyl-9-(3S-methyl-1,2,3,4-tetrahydro-pyrrolo[1,2-a]pyrazin-7-yl)-6-oxo-2,3-dihydro-6H-1-oxa-3a-aza-phenalene-5-carboxylic acid]
MIC [1]: 16 µg/mL (≈ 40.3 µM)
MIC [2]: 1 µg/mL (≈ 2.52 µM)
MIC [3]: 8 µg/mL (≈ 20.1 µM)
MIC [4]: 4 µg/mL (≈ 10.1 µM)
MIC [5]: 0.25 µg/mL (≈ 0.629 µM)

C[C@@H]1NCCn2cc(-c3c(F)cc4c(=O)c(C(=O)O)cn5c4c3OC[C@@H]5C)cc21 [Compound 24, 8-Fluoro-3S-methyl-9-(1S-methyl-1,2,3,4-tetrahydro-pyrrolo[1,2-a]pyrazin-7-yl)-6-oxo-2,3-dihydro-6H-1-oxa-3a-aza-phenalene-5-carboxylic acid]
MIC [1]: 16 µg/mL (≈ 40.3 µM)
MIC [2]: 1 µg/mL (≈ 2.52 µM)
MIC [3]: 8 µg/mL (≈ 20.1 µM)
MIC [4]: 4 µg/mL (≈ 10.1 µM)
MIC [5]: 0.25 µg/mL (≈ 0.629 µM)

C[C@H]1Cn2cc(-c3nc4c(cc3F)c(=O)c(C(=O)O)cn4C3CC3)cc2CN1 [Compound 25, 1-Cyclopropyl-6-fluoro-7-(3S-methyl-1,2,3,4-tetrahydro-pyrrolo[1,2-a]pyrazin-7-yl)-4-oxo-1,4-dihydro-[1,8]naphthyridine-3-carboxylic acid]
MIC [1]: 8 µg/mL (≈ 20.9 µM)
MIC [2]: 0.5 µg/mL (≈ 1.31 µM)
MIC [3]: 8 µg/mL (≈ 20.9 µM)
MIC [4]: 2 µg/mL (≈ 5.23 µM)
MIC [5]: 0.06 µg/mL (≈ 0.157 µM)

C[C@@H]1NCCn2cc(-c3nc4c(cc3F)c(=O)c(C(=O)O)cn4C3CC3)cc21 [Compound 26, 1-Cyclopropyl-6-fluoro-7-(1S-methyl-1,2,3,4-tetrahydro-pyrrolo[1,2-a]pyrazin-7-yl)-4-oxo-1,4-dihydro-[1,8]naphthyridine-3-carboxylic acid]
MIC [1]: 16 µg/mL (≈ 41.8 µM)
MIC [2]: 1 µg/mL (≈ 2.62 µM)
MIC [3]: 8 µg/mL (≈ 20.9 µM)
MIC [4]: 8 µg/mL (≈ 20.9 µM)
MIC [5]: 0.5 µg/mL (≈ 1.31 µM)

C[C@H]1Cn2cc(-c3nc4c(cc3F)c(=O)c(C(=O)O)cn4-c3ccc(F)cc3F)cc2CN1 [Compound 27, 1-(2,4-Difluoro-phenyl)-6-fluoro-7-(3S-methyl-1,2,3,4-tetrahydro-pyrrolo[1,2-a]pyrazin-7-yl)-4-oxo-1,4-dihydro-[1,8]naphthyridine-3-carboxylic acid]
MIC [1]: > 16 µg/mL
MIC [2]: 1 µg/mL (≈ 2.2 µM)
MIC [3]: 16 µg/mL (≈ 35.2 µM)
MIC [4]: 16 µg/mL (≈ 35.2 µM)
MIC [5]: 0.12 µg/mL (≈ 0.264 µM)

C[C@@H]1NCCn2cc(-c3nc4c(cc3F)c(=O)c(C(=O)O)cn4-c3ccc(F)cc3F)cc21 [Compound 28, 1-(2,4-Difluoro-phenyl)-6-fluoro-7-(1S-methyl-1,2,3,4-tetrahydro-pyrrolo[1,2-a]pyrazin-7-yl)-4-oxo-1,4-dihydro-[1,8]naphthyridine-3-carboxylic acid]
MIC [1]: > 16 µg/mL
MIC [2]: 4 µg/mL (≈ 8.8 µM)
MIC [3]: > 16 µg/mL
MIC [4]: 16 µg/mL (≈ 35.2 µM)
MIC [5]: 1 µg/mL (≈ 2.2 µM)

C[C@@H]1NCCn2cc(-c3c(F)cc4c(=O)c(C(=O)O)cn(C5CC5)c4c3OC(F)F)cc21 [Compound 29, 1-Cyclopropyl-8-difluoromethoxy-6-fluoro-7-(1S-methyl-1,2,3,4-tetrahydro-pyrrolo[1,2-a]pyrazin-7-yl)-4-oxo-1,4-dihydro-quinoline-3-carboxylic acid]
MIC [1]: 16 µg/mL (≈ 35.8 µM)
MIC [2]: 2 µg/mL (≈ 4.47 µM)
MIC [3]: 8 µg/mL (≈ 17.9 µM)
MIC [4]: 1 µg/mL (≈ 2.24 µM)
MIC [5]: 0.25 µg/mL (≈ 0.559 µM)

O=C(O)c1cn(-c2ccc(F)cc2F)c2nc(-c3cc4n(c3)CCN(Cc3ccccc3)C4)c(F)cc2c1=O [Compound 30, 7-(2-Benzyl-1,2,3,4-tetrahydro-pyrrolo[1,2-a]pyrazin-7-yl)-1-(2,4-difluoro-phenyl)-6-fluoro-4-oxo-1,4-dihydro-[1,8]naphthyridine-3-carboxylic acid]
MIC [1]: 16 µg/mL (≈ 30.2 µM)
MIC [2]: 8 µg/mL (≈ 15.1 µM)
MIC [3]: 8 µg/mL (≈ 15.1 µM)
MIC [4]: 8 µg/mL (≈ 15.1 µM)
MIC [5]: 2 µg/mL (≈ 3.77 µM)

COc1c(-c2cc3n(c2)CCN(Cc2ccccc2)C3)c(F)cc2c(=O)c(C(=O)O)cn(C3CC3)c12 [Compound 31, 7-(2-Benzyl-1,2,3,4-tetrahydro-pyrrolo[1,2-a]pyrazin-7-yl)-1-cyclopropyl-6-fluoro-8-methoxy-4-oxo-1,4-dihydro-quinoline-3-carboxylic acid]
MIC [1]: > 16 µg/mL
MIC [2]: 2 µg/mL (≈ 4.1 µM)
MIC [3]: > 16 µg/mL
MIC [4]: 8 µg/mL (≈ 16.4 µM)
MIC [5]: 0.25 µg/mL (≈ 0.513 µM)

COc1c(C2=C[C@H]3CNCCN3C2)c(F)cc2c(=O)c(C(=O)O)cn(C3CC3)c12 [Compound 32, 1-Cyclopropyl-6-fluoro-7-(1,2,3,4,6,8a-hexahydro-pyrrolo[1,2S-a]pyrazin-7-yl)-8-methoxy-4-oxo-1,4-dihydro-quinoline-3-carboxylic acid]
MIC [1]: 16 µg/mL (≈ 40.1 µM)
MIC [2]: 2 µg/mL (≈ 5.01 µM)
MIC [3]: > 16 µg/mL
MIC [4]: 16 µg/mL (≈ 40.1 µM)
MIC [5]: 0.25 µg/mL (≈ 0.626 µM)

C[C@H]1COc2c(C3=C[C@H]4CNCCN4C3)c(F)cc3c(=O)c(C(=O)O)cn1c23 [Compound 33, 8-Fluoro-9-(1,2,3,4,6,8a-hexahydro-pyrrolo[12-a]pyrazin-7-yl)-3S-methyl-6-oxo-2,3-dihydro-6H-1-oxa-3a-aza-phenalene-5-carboxylic acid]
MIC [1]: > 16 µg/mL
MIC [2]: 2 µg/mL (≈ 5.19 µM)
MIC [3]: > 16 µg/mL
MIC [4]: > 16 µg/mL
MIC [5]: 0.25 µg/mL (≈ 0.649 µM)

COc1c(-c2cc3n(c2)CCNC3)c(F)cc2c(=O)c(C(=O)O)cn(C3CC3)c12 [Compound 34, 1-Cyclopropyl-6-fluoro-8-methoxy-4-oxo-7-(1,2,3,4-tetrahydro-pyrrolo[1,2-a]pyrazin-7-yl)-1,4-dihydro-quinoline-3-carboxylic acid]
MIC [1]: 1 µg/mL (≈ 2.52 µM)
MIC [2]: 0.25 µg/mL (≈ 0.629 µM)
MIC [3]: 1 µg/mL (≈ 2.52 µM)
MIC [4]: 1 µg/mL (≈ 2.52 µM)
MIC [5]: 0.03 µg/mL (≈ 0.0755 µM)

C[C@H]1COc2c(-c3cc4n(c3)CCNC4)c(F)cc3c(=O)c(C(=O)O)cn1c23 [Compound 35, 8-Fluoro-3S-methyl-6-oxo-9-(1,2,3,4-tetrahydro-pyrrolo[1,2-a]pyrazin-7-yl)-2,3-dihydro-6H-1-oxa-3a-aza-phenalene-5-carboxylic acid]
MIC [1]: > 16 µg/mL
MIC [2]: 2 µg/mL (≈ 5.22 µM)
MIC [3]: > 16 µg/mL
MIC [4]: > 16 µg/mL
MIC [5]: 0.5 µg/mL (≈ 1.3 µM)
